Source: US10265310B2, “6-membered cyclic amines or lactames substituted with urea and phenyl” (GRÜNENTHAL GMBH, priority 2016, dated 2019)
pEC50: −log10 of the molar value.

What was measured:
FPR1 = FPR1 (Homo sapiens (Human), UniProt P21462); assay: Agonistic activity (calcium FLIPR) in hFPR1-Gα15-CHO cells; type: cell-based; details: FLIPR Calcium 5 dye fluorescence, agonistic response
Description: (§1) Cells (hFPR1-Gα15-CHO or hFPR2-Aq-CHO) are suspended in 10 mL of respective complete medium (F12(1×) HAM media; 10% HI-FBS; 0.1 mg/ml Hygromycin B and 0.2 mg/ml Zeocin [for hFPR1 only]; 0.4 mg/mL Geneticin and 0.25 mg/ml Zeocin [for hFPR2-Aq only]) and viability is checked using Trypan Blue exclusion. After washing, the cells are plated at 10,000 cells per well in 40 μL complete medium in a 384-well sterile clear bottom black plate and incubated in a 5% CO2 incubator at 37° C. for 18 hours. Plating media is removed from each well by decanting and gentle tapping before 30 μL of 0.5× Calcium 5 dye solution (0.5×FLIPR Calcium 5 dye (Molecular devices, R8186)); HBSS; 20 mM HEPES; 2.5 mM Probenecid; 0.025% Pluronic F-127; pH adjusted to 7.4) is added to each well and the plate is then incubated at 37° C. for 30 minutes. For the assay the plate is equilibrated at room temperature for 10 minutes before placing it in the FLIPR. Compounds are dissolved in DMSO and serially diluted over an 11 point half log (3.16 fold) dilution (2 mM to 20 nM). Compounds are then diluted 1:50 in assay buffer (HBSS; 20 mM HEPES; 2.5 mM Probenecid; 0.05% gelatin; 0.1% BSA; pH adjusted to 7.4) just before performing the assay. Compounds are finally added to the respective wells of the cell plate (final assay concentration 10 μM to 100 pM) using the FLIPR (e.g. FLIPR-Tetra, Molecular Devices) and fluorescence readings are captured for 5 minutes. The increase in fluorescence from the basal reading in the presence of the compounds is compared with that of the control wells (wells having no compound) to calculate the activity of the compounds. The EC50 values of the compounds can be determined using e.g. Graph pad Prism software.
(§2) Assay Method for Measuring Agonistic Activity of Compounds in hFPR1-Gα15-CHO and hFPR2-Aq-CHO Cell
(§3) Cryo-vial containing 6×10^6 cells (hFPR1-Gα15-CHO or hFPR2-Aq-CHO) was thawed in a 37° C. water bath. Cells were suspended in 10 ml of respective complete growth media (F12(1×) HAM media (Gibco; Cat#11765); 10% HI-FBS (Gibco; Cat#10082); 0.1 mg/ml Hygromycin B (Invitrogen; Cat#10687-010) [for hFPR1 only]; 0.2 mg/ml Zeocin (Invitrogen; Cat#R25001) [for hFPR1 only]; 0.4 mg/ml Geneticin (Gibco; Cat#10131) [for hFPR2-Aq only]; 0.25 mg/ml Zeocin (Invitrogen; Cat#R25001) [for hFPR2-Aq only]) in a 15 ml centrifuge tube. The cell viability was checked with the help of Trypan Blue dye. Upon washing the cells, those were plated in a 384-well sterile clear bottom black plate (Greiner Bioone Cat#781091) so that, each well contained 10,000 cells in 40 μl complete growth media. The plate was incubated in a 5% CO2 incubator at 37° C. for 18 hours.
(§4) Before assay on the next day, the cell plating media was removed from each well of the plate by decanting and gentle tapping. 30 μl, 0.11 of 0.5× Calcium 5 dye solution (0.5×FLIPR Calcium 5 dye (Molecular devices Cat# R8186); HBSS (Invitrogen; Cat#14025); 20 mM HEPES (Sigma; Cat#H0887); 2.5 mM Probenecid (Sigma; Cat#P8761); 0.025% Pluronic F-127 (Sigma; Cat#P2443); pH adjusted to 7.4) was added to each well. The plate was then incubated at 37° C. for 30 minutes. Following which the plate was equilibrated at room temperature for 10 minutes before placing it in a 384 well FLIPR for assay. Compounds were dissolved in DMSO and serially diluted following 11 point half log (3.16 fold) dilution with a starting concentration of 2 mM (Final assay concentration 10 μM). Aliquots of above mentioned each dilution was mixed with assay buffer (HBSS (Invitrogen; Cat#14025); 20 mM HEPES (Sigma; Cat#H0887); 2.5 mM Probenecid (Sigma; Cat#P8761); 0.05% gelatin (Sigma; Cat#G1890); 0.1% BSA (Sigma; Cat#A3059); pH adjusted to 7.4) just before performing the assay. Compounds were added to the respective wells of the assay ready cell plate with the help of the FLIPR (FLIPR Tetra) and fluorescence readings were captured for 5 minutes to measure any agonistic response of the compounds. […]

FPR2 = FPR2 (Homo sapiens (Human), UniProt P25090); assay: Agonistic activity (calcium FLIPR) in hFPR2-Aq-CHO cells; type: cell-based; details: FLIPR Calcium 5 dye fluorescence, agonistic response
Chain of FPR2 (P25090 whole entry): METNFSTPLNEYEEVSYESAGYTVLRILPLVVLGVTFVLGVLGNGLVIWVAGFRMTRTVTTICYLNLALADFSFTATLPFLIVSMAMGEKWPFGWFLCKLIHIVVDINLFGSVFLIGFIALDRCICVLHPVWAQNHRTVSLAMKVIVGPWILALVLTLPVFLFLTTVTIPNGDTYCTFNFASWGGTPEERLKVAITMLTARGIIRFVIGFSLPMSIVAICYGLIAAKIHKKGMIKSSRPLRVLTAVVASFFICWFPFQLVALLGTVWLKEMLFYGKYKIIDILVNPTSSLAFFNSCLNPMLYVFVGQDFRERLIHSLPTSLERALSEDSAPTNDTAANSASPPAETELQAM
Description: as §1, §2, §3, §4

Chain of FPR1 (P21462 whole entry): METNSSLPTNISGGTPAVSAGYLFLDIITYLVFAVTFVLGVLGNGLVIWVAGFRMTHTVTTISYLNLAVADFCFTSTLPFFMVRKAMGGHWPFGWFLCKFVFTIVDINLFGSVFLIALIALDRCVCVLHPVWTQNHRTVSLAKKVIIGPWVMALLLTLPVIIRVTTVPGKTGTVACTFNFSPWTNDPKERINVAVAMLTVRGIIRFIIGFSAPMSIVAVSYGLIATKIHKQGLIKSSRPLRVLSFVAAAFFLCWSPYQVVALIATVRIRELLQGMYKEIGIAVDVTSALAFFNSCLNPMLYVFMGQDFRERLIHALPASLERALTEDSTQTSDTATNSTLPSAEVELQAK

Row | Structure (SMILES) | pEC50 (FPR1) | pEC50 (FPR2)
1 | COc1cc(F)c([C@@H]2CC(=O)N(CC3CC3)C[C@H]2NC(=O)Nc2ccc(Cl)cc2)c(F)c1 (racemic) [Example 29, rac-trans-1-(4-chlorophenyl)-3-(1-(cyclopropylmethyl)-4-(2,6-difluoro-4-methoxyphenyl)-6-oxopiperidin-3-yl)urea] | 6.00 to 9.00 | > 9.00
2 | COc1cc(F)c([C@@H]2CC(=O)NC[C@H]2NC(=O)Nc2ccc(Cl)s2)c(F)c1 (racemic) [Example 51, rac-trans-1-(5-chlorothiophen-2-yl)-3-(4-(2,6-difluoro-4-methoxyphenyl)-6-oxopiperidin-3-yl)urea] | 6.00 to 9.00 | 6.00 to 9.00
3 | COc1cc(F)c(C2CC(=O)NCC2NC(=O)Nc2ccc(Cl)cc2)c(F)c1 (single isomer, unassigned; ent1) [Example 49, trans-ent1-1-(4-chlorophenyl)-3-(4-(2,6-difluoro-4-methoxyphenyl)-6-oxopiperidin-3-yl)urea] | 6.00 to 9.00 | 6.00 to 9.00
4 | COCCN1CC(NC(=O)Nc2ccc(Cl)cc2)C(c2ccc(F)cc2F)CC1=O (single isomer, unassigned; ent2) [Example 64, trans-ent2-1-(4-Chlorophenyl)-3-[4-(2,4-difluoro-phenyl)-1-(2-methoxy-ethyl)-6-oxo-piperidin-3-yl]-urea] | 6.00 to 9.00 | 6.00 to 9.00
5 | COc1cc(F)c([C@@H]2CCNC[C@H]2NC(=O)Nc2ccc(Cl)cc2)c(F)c1 (racemic) [Example 9, rac-trans-1-(4-chlorophenyl)-3-(4-(2,6-difluoro-4-methoxyphenyl)piperidin-3-yl)urea] | 6.00 to 9.00 | > 9.00
6 | COc1cc(F)c(C2C(NC(=O)Nc3ccc(Cl)cc3)CCCN2C)c(F)c1 (single isomer, unassigned; dia2) [Example 88, dia2-1-(4-chlorophenyl)-3-(2-(2,6-difluoro-4-methoxyphenyl)-1-methylpiperidin-3-yl)urea] | 6.00 to 9.00 | 6.00 to 9.00
7 | COc1cc(F)c([C@@H]2CC(=O)NC[C@H]2NC(=O)Nc2csc(Cl)c2)c(F)c1 (racemic) [Example 52, rac-trans-1-(5-Chloro-thiophen-3-yl)-3-[4-(2,6-difluoro-4-methoxy-phenyl)-6-oxo-piperidin-3-yl]-urea] | 6.00 to 9.00 | > 9.00

The remaining lines, values ahead:

Row | pEC50 (FPR1) | pEC50 (FPR2) | Structure (SMILES)
8 | 6.00 to 9.00 | 6.00 to 9.00 | COc1ccc([C@@H]2CC(=O)N(C)C[C@H]2NC(=O)Nc2ccc(Cl)cc2)cc1 (stereo in doubt) [Example 11, trans-ent2-(4-chlorophenyl)-3-(4-(4-methoxyphenyl)-1-methyl-6-oxopiperidin-3-yl)urea]
9 | 6.00 to 9.00 | > 9.00 | COc1ccc([C@@H]2CC(=O)N(CC(N)=O)C[C@H]2NC(=O)Nc2ccc(Cl)cc2)cc1 (racemic) [Example 20, rac-trans-2-(5-(3-(4-chlorophenyl)ureido)-4-(4-methoxyphenyl)-2-oxopiperidin-1-yl)acetamide]
10 | 6.00 to 9.00 | > 9.00 | COc1ccc([C@@H]2CCNC[C@H]2NC(=O)Nc2ccc(Br)cc2)cc1 (racemic) [Example 6, rac-trans-1-(4-bromophenyl)-3-(4-(4-methoxyphenyl)piperidin-3-yl)urea]
11 | > 9.00 | > 9.00 | COc1ccc([C@@H]2CCN(C(=O)C(C)C)C[C@H]2NC(=O)Nc2ccc(Cl)cc2)cc1 (racemic) [Example 17, rac-trans-1-(4-chlorophenyl)-3-(1-isobutyryl-4-(4-methoxyphenyl)piperidin-3-yl)urea]
12 | 6.00 to 9.00 | 6.00 to 9.00 | COc1ccc(C2CCN(C(C)=O)C[C@H]2NC(=O)Nc2ccc(C)nc2)cc1 (mixture of isomers) [Example 28, rac-trans-1-(1-acetyl-4-(4-methoxyphenyl)piperidin-3-yl)-3-(6-methylpyridin-3-yl)urea]
13 | 6.00 to 9.00 | > 9.00 | COc1ccc([C@@H]2CC(=O)N(CCO)C[C@H]2NC(=O)Nc2ccc(Cl)cc2)cc1 (racemic) [Example 32, rac-trans-1-(4-chlorophenyl)-3-(1-(2-hydroxyethyl)-4-(4-methoxyphenyl)-6-oxopiperidin-3-yl)urea]
